# Measured values: PubChem BioAssay (NCI)
# “And” between values parts separate entries of the source, which are not always exact repeats. Equal entries are not always repeated.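 Compound exposure: 48 hours, 5 concentrations, 96-well plates. At the GI50, growth is halved. The concentration for full growth arrest is given as TGI.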
# Tests used:
# Experiment in all cases: NCI anticancer screen, dose series, 48 h
# A549 NSCLC = tested on: A549 NSCLC
# HCT-116 colon = tested on: HCT-116 colon
# HL-60(TB) leukemia = tested on: HL-60(TB) leukemia
# HOP-92 NSCLC = tested on: HOP-92 NSCLC
# HT29 colon = tested on: HT29 colon
# KM12 colon = tested on: KM12 colon
# MDA-N = tested on: MDA-N
# RXF 393 renal = tested on: RXF 393 renal
# SK-MEL-5 melanoma = tested on: SK-MEL-5 melanoma
# SNB-19 CNS = tested on: SNB-19 CNS
SMILES,TGI (A549 NSCLC),TGI (HCT-116 colon) [µM],TGI (HL-60(TB) leukemia) [µM],TGI (HOP-92 NSCLC) [µM],TGI (HT29 colon),TGI (KM12 colon),TGI (MDA-N),TGI (RXF 393 renal) [µM],TGI (SK-MEL-5 melanoma),TGI (SNB-19 CNS),GI50 (HCT-116 colon),GI50 (HL-60(TB) leukemia) [µM],GI50 (HT29 colon),GI50 (KM12 colon),GI50 (MDA-N),GI50 (SK-MEL-5 melanoma)
CCOC(=O)c1nc2ccc(C(F)(F)F)cc2nc1NCc1cc(OC)c(OC)c(OC)c1,> 100 µM,> 100,83.4,> 100,> 100 µM,> 100 µM,76 µM,> 100,> 100 µM,> 100 µM,,,,,,
Cc1cc(S(=O)(=O)N=C2N(Cc3ccccc3)CCN2Cc2ccccc2)c(S)cc1Cl,> 100 µM,> 100,> 100,> 100,> 100 µM,> 100 µM,> 100 µM,> 100,> 100 µM,> 100 µM,,,,,,
O=c1cc(-c2ccc(F)cc2)[nH]c2ncc(Cl)cc12,> 100 µM,> 61.3,15.3,65.4,> 100 µM,> 100 µM,7.91 µM,89.2,> 100 µM,> 100 µM,,,,,,
COc1ccc2ccccc2c1/C=C/C(=O)c1ccccc1,10.4 µM,11,4.33,6.97,12.4 µM,8 µM,13.4 µM,3.88,16.1 µM,12.4 µM,,,,,,
C(=Nc1ccc(-c2nc3ccccc3[nH]2)cc1)c1cccs1,> 100 µM,> 100,> 100,98.2,> 100 µM,> 100 µM,> 100 µM,> 100,> 100 µM,> 100 µM,,,,,,
CC1=NNC(N)=N/C1=C\C(Sc1ccc(Cl)cc1)c1ccc([N+](=O)[O-])cc1 (stereo unspecified),> 100 µM,> 100,76.4,> 100,> 100 µM,> 100 µM,> 100 µM,> 100,> 100 µM,> 100 µM,,,,,,
COc1cc(/C=C2/C[C@H]3[C@@H]4CC=C5C[C@@H](O)CC[C@]5(C)[C@H]4CC[C@]3(C)NC2=O)cc(OC)c1OC,> 100 µM,> 66.3,> 100,25,> 80.7 µM,> 100 µM,> 100 µM,42.3,> 47.5 µM,> 84.7 µM,,,,,,
CCOC(=O)N/N=C(/N)c1cccc([N+](=O)[O-])c1,> 100 µM,> 100,> 100,> 100,> 100 µM,> 100 µM,> 100 µM,> 100,> 100 µM,> 100 µM,,,,,,
O=C1CSC(c2cccc(Oc3ccccc3)c2)N1c1ccc(Cl)cc1 (stereo unspecified),> 100 µM,37.9,> 100,65.7,> 100 µM,> 100 µM,63.6 µM,73.3,25.2 µM,> 100 µM,,,,,,
CC(=O)OCC12C(=O)C[C@@H](C)C3(CC(c4ccoc4)OC3=O)C1CCC(OC(C)=O)C21CO1 (stereo partly specified),> 100 µM,> 100,> 100,> 100,> 100 µM,> 100 µM,> 100 µM,> 100,> 100 µM,> 100 µM,,,,,,
CSc1ccc2c(cc1=O)[C@@H](NC(=O)c1ccc(N)cc1)CCc1cc(O)c(O)c(O)c1-2,49.7 µM and 64.9 µM,> 100,> 75,> 100,30.5 µM and 9.94 µM,33.2 µM and 17 µM,> 75 µM and 54.1 µM,> 100,45.5 µM and 28.7 µM,61 µM and > 100 µM,23.8 µM and 11 µM,> 75,13.3 µM and 2.57 µM,14.7 µM and 3.68 µM,23.9 µM and 5.99 µM,21.1 µM and 6.63 µM
CON(C)C(=O)CNC(=O)OCC1c2ccccc2-c2ccccc21,> 100 µM,> 100,90.9,> 100,> 100 µM,> 100 µM,> 100 µM,> 100,> 100 µM,> 100 µM,,,,,,
COC(CNC(=O)C(C)NC(=O)CCc1ccccc1)OC (stereo unspecified),> 100 µM,> 100,> 100,> 100,> 100 µM,> 100 µM,> 100 µM,> 100,> 100 µM,> 100 µM,,,,,,
Cc1nc(-c2cc3cc([N+](=O)[O-])ccc3oc2=O)cs1,> 100 µM,> 100,> 100,> 100,> 100 µM,> 100 µM,> 100 µM,> 100,> 100 µM,> 100 µM,,,,,,
COc1cc(CNCc2cc(OC)c(OC)c(OC)c2)cc(OC)c1OC,> 10 µM,> 10,> 6.74,> 10,> 10 µM,> 10 µM,> 10 µM,> 10,> 10 µM,> 10 µM,,,,,,
COc1cc(C(=O)N(Cc2cccnc2)C(=S)N(Cc2cccnc2)C(=O)c2cc(OC)c(OC)c(OC)c2)cc(OC)c1OC,> 100 µM,> 100,> 100,52.2,> 100 µM,56.7 µM,> 100 µM,> 100,> 100 µM,> 100 µM,,,,,,
CC(C)(C)OC(=O)NC(Cc1ccc(OCc2ccccc2)cn1)C(=O)N1CCCCC1 (stereo unspecified),> 100 µM,> 100,82.1,> 100,> 100 µM,> 100 µM,> 100 µM,65.3,31 µM,> 100 µM,,,,,,
O=C1CC(=Nc2ccc(Cl)cc2)C(c2ccccc2)N1c1ccccc1 (stereo unspecified),> 100 µM,65.1,21.3,54.6,37.4 µM,> 100 µM,10.8 µM,> 100,22.8 µM,> 100 µM,,,,,,
Cc1c(S(=O)(=O)/N=C(\NO)Nc2ccc(Cl)c(Cl)c2)sc2ccc(Cl)cc12,68.8 µM,37,77.3,43.8,29.3 µM,38.6 µM,34.8 µM,34,31.5 µM,45.1 µM,,,,,,
CCN(CC)C(=S)N/N=C(/C)c1cccc(/C(C)=N\NC(=S)N(CC)CC)n1,11.3 µM,11.4,3.77,7.74,13.2 µM,4.1 µM,21.4 µM,7.03,8.2 µM,18.4 µM,,,,,,
COc1ccc(C(=C(Cl)c2ccccc2)c2ccc(OC)cc2)cc1,> 100 µM,> 100,> 100,> 100,> 100 µM,> 100 µM,> 100 µM,> 100,> 100 µM,> 100 µM,,,,,,
O=C(N/N=C/c1ccccc1)c1c(-c2cccnc2)cnc2ccccc12,> 100 µM,> 100,> 100,> 100,> 100 µM,> 100 µM,> 100 µM,> 100,> 100 µM,> 100 µM,,,,,,
CCOc1cn(C2CC(O)C(CO)O2)c(=O)[nH]c1=O (stereo unspecified),> 100 µM,> 100,> 100,> 100,> 100 µM,> 100 µM,> 100 µM,> 100,> 100 µM,> 100 µM,,,,,,
C=CC(CCc1ccc(C(=O)OCC)cc1)c1c(N)nc(N)[nH]c1=O (stereo unspecified),> 100 µM,> 100,> 100,83.8,> 100 µM,> 100 µM,> 100 µM,> 100,> 100 µM,> 100 µM,,,,,,
Cn1cc(NC(=O)c2cc(NC(=O)CN=C(N)N)cn2C)cc1C(=O)NCCC(=N)N,> 100 µM,> 100,> 100,> 100,> 100 µM,> 100 µM,> 100 µM,> 100,> 100 µM,> 100 µM,,,,,,
c1ccc2c(c1)ccn2CCc1c[nH]c2ccccc12,> 10 µM,> 10,> 10,> 10,> 10 µM,> 10 µM,> 10 µM,> 10,> 10 µM,> 10 µM,,,,,,
C[N+](C)(C)CC1CCCCCCCCCCC1=O (stereo unspecified),> 100 µM,> 100,> 100,> 100,> 100 µM,> 100 µM,> 100 µM,> 100,> 100 µM,> 100 µM,,,,,,
Cc1ccc([N+](=O)[O-])cc1S(=O)(=O)Nc1ccc(C2=NNC(c3ccccc3)C2)cc1 (stereo unspecified),> 100 µM,33.1,54.2,> 100,> 100 µM,34.4 µM,92.7 µM,30.4,30.9 µM,> 100 µM,,,,,,
CCOCc1nc2c(OC)cc(-c3nc4ccc(N5CCN(C)CC5)cc4[nH]3)c(OC)c2[nH]1,> 100 µM,> 100,21.1,> 100,83 µM,> 100 µM,35.9 µM,36.2,31.6 µM,> 100 µM,,,,,,
CCN(CC)C(=O)Cn1c(C)cc2ccccc21,> 100 µM,> 100,> 100,> 100,> 100 µM,> 100 µM,> 100 µM,> 100,> 100 µM,> 100 µM,,,,,,
